{
  "source": "patent US20060293293A1",
  "about": "“Salmeterol and ciclesonide combination” (Altana Pharma AG, priority 2003, published 2006)",
  "origin": "cited, not measured here",
  "key": {"[1]": {"conditions": "compared with budesonide"}},
  "data": [
    {"smiles": "CC(C)C(=O)OCC(=O)[C@@]12O[C@H](C3CCCCC3)O[C@@H]1C[C@H]1[C@@H]3CCC4=CC(=O)C=C[C@]4(C)[C@H]3[C@@H](O)C[C@@]12C", "note": "[Ciclesonide, [11β,16α(R)]-16,17[(Cyclohexylmethylen)bis(oxy)]-11-hydroxy-21-(2-methyl-1-oxoprop-oxy)pregna-1,4dien-3,20-dion]", "values": [
      {"measurement": "anti-inflammatory activity relative to budesonide", "setting": "[1]", "result": "higher"},
      {"measurement": "systemic activity relative to budesonide", "setting": "[1]", "result": "three times lower"},
      {"measurement": "metabolism by liver oxidases", "setting": "liver oxidases", "result": "very high"},
      {"measurement": "concentration of the drug in the lungs", "setting": "lungs", "result": "high"},
      {"measurement": "absorption after oral administration", "setting": "oral administration", "result": "only moderately absorbed"},
      {"measurement": "plasma half-life", "setting": "plasma", "result": "low plasma half-life"}
    ]}
  ]
}
